Measured values taken from US20190223483A1, “SENSORY MODIFIER COMPOUNDS” (CARGILL, INCORPORATED, priority 2017, published 2019).
Several values for one entry are separate records, joined by “and”; a condition that tells them apart may be missing. Equal entries are not always repeated. Entries after “also recorded” stand apart in the source; their conditions may differ.

Experiments:
[1] = Sweetness intensity (SEV) by trained panel against 1%-14% sucrose standards; assay type: in vivo; settings: for sweetness intensity plateau (SEV): Reb M alone, at about 800 ppm; for sweetness intensity (SEV): about 1400 ppm Reb M with about 1400 ppm sensory modifier
Procedure: In some aspects, the amount of sensory modifier compound effective to increase sweetness intensity can be determined by panel testing with trained panelists. For example, […] can be determined by the following test: Solutions were prepared by dissolving steviol glycosides and sensory modifier compounds into reverse osmosis water at the indicated concentrations and/or ratios. Solutions were tested by a panel of at least four individuals that are highly-trained in tasting steviol glycoside solutions. The highly-trained panelists were trained against a standard range of 1%, 2%, 3%, 4%, 5%, 6%, 7%, 8%, 9%, 10%, 11%, 12%, 13%, and 14% sucrose solutions corresponding to 1, 2, 3, 4, 5, 6, 7, 8, 9, 10, 11, 12, 13, and 14 SEV. To test each solution, the highly-trained panelists dispensed approximately 2 mL of each solution into their own mouths by transfer pipet, dispersed the solution by moving their tongues, and recorded an SEV value for each solution based on comparison to the 1%, 2%, 3%, 4%, 5%, 6%, 7%, 8%, 9%, 10%, 11%, 12%, 13%, and 14% sucrose solutions. Between tasting solutions, the panelists were able to cleanse their palates with water. […] For sweetness intensity, the panelists focused on, and only recorded, the sweetness intensity in SEV that they tasted while disregarding other attributes of the solution. At the highest concentrations of steviol glycoside and sensory modifier compound, the panelists found other attributes to be highly noticeable, but recorded the isolated sweetness intensity for each solution despite these other attributes. Exemplary tests are described below in Example 1.
All solutions were prepared by dissolving steviol glycosides and sensory modifier compounds into reverse osmosis water at the indicated concentrations and/or ratios.
For sweetness intensity, the solutions were tested by a panel of at least four individuals that are highly-trained in tasting steviol glycoside solutions. The highly-trained panelists were trained against a standard range of 1%, 2%, 3%, 4%, 5%, 6%, 7%, 8%, 9%, 10%, 11%, 12%, 13%, and 14% sucrose solutions corresponding to 1, 2, 3, 4, 5, 6, 7, 8, 9, 10, 11, 12, 13, and 14 SEV. To test each solution, the highly-trained panelists dispensed approximately 2 mL of each solution into their own mouths by transfer pipet, dispersed the solution by moving their tongues, and recorded an SEV value for each solution based on comparison to the 1%, 2%, 3%, 4%, 5%, 6%, 7%, 8%, 9%, 10%, 11%, 12%, 13%, and 14% sucrose solutions. Between tasting solutions, the panelists were able to cleanse their palates with water. […] For this example, the panelists focused on and only recorded the sweetness intensity in SEV that they tasted while disregarding other attributes of the solution. At the highest concentrations of steviol glycoside and sensory modifier compound, the panelists found other attributes to be highly noticeable, but recorded the isolated sweetness intensity for each solution despite these other attributes.

[2] = Roundtable assessment of off taste (scale 0 to 6); assay type: in vivo; parameters: key to Off taste / off taste score: 0 = none; 1 = trace/faint; 2 = slight; 3 = moderate; 4 = definite; 5 = strong; 6 = extreme
Procedure: For other sweetness attributes, the solutions were tested by a panel of at least four individuals that are highly-trained in tasting steviol glycoside solutions. The highly-trained panelists used a roundtable methodology to assess each sweetness attribute. To test each solution, the highly-trained panelists dispensed approximately 2 mL of each solution into their own mouths by transfer pipet, dispersed the solution by moving their tongues, and recorded a value for the particular sweetness attribute being tested. Between tasting solutions, the panelists were able to cleanse their palates with water. For each sweetness attribute, the panelist agreed on a descriptive scale with relative intensities assigned for each sweetness attribute and then recorded the values for each sweetness attribute against this. For example, this roundtable assessment of sweetness linger assigned a scale of 0 to 6 with a score of 0 indicating no sweetness linger and a score of 6 indicating extreme sweetness linger. Roundtable assessment of sweetness linger assigned a scale of 0 to 6 with a score of 0 indicating no sweetness linger and a score of 6 indicating extreme sweetness linger (0=none, 1=trace, 2=slight, 3=moderate, 4=definite, 5=strong, 6=extreme). Roundtable assessment of rounded assigned a scale of 0 to 3 with a score of 0 indicating spikey and a score of 3 indicating desirable rounded (0=none, 1=mostly spikey, some rounded, 2=mostly rounded, some spikey, 3=rounded). Roundtable assessment of mouthfeel assigned a scale of 0 to 2 with a score of 0 indicating water and a score of 2 indicating syrupy (0=water, 1=sucrosey, 2=syrupy). Roundtable assessment of bitterness assigned a scale of 0 to 6 with a score of 0 indicating no bitterness and a score of 6 indicating extreme sweetness linger (0=none, 1=trace, 2=slight, 3=moderate, 4=definite, 5=strong, 6=extreme). Roundtable assessment of off tastes assigned a scale of 0 to 6 with a score of 0 indicating no bitterness and a score of 6 indicating extreme off tastes (0=none, 1=trace, 2=slight, 3=moderate, 4=definite, 5=strong, 6=extreme).
A series of assays were carried out to characterize off taste (0=none, 1=trace/faint, 2=slight, 3=moderate, 4=definite, 5=strong, 6=extreme) of steviol glycoside compositions with sensory modifier compound using the roundtable methodology described in Example 1. […] Solutions of steviol glycosides and sensory modifier compound were prepared at increasing ratios of sensory modifier to steviol glycoside by weight. The steviol glycosides were RebA (4 glycoside groups), RebD (5 glycoside groups), RebM (6 glycoside groups), and OPS1-5(7 glycoside groups) and the sensory modifier compound was monocaffeoylquinic and dicaffeoylquinic acids prepared from yerba mate. The concentration of steviol glycosides was 700 ppm in each solution. The solutions were tested for off taste. Off taste included astringency, metallic, powdery, numbing, and vapory attributes.

[3] = RebM 700 ppm + cichoric acid (tartaric backbone) […]
[4] = RebM 700 ppm + rosmarinic acid 195 ppm
[5] = RebM 700 ppm + rosmarinic acid 586 ppm
[6] = steviol glycoside 700 ppm + yerba mate mono/dicaffeoylquinic acids 236 ppm
[7] = steviol glycoside 700 ppm + yerba mate mono/dicaffeoylquinic acids 300 ppm
[8] = steviol glycoside 700 ppm + yerba mate mono/dicaffeoylquinic acids 400 ppm
[9] = steviol glycoside 700 ppm + yerba mate mono/dicaffeoylquinic acids 472 ppm
[10] = steviol glycoside 700 ppm + yerba mate mono/dicaffeoylquinic acids 500 ppm
[11] = steviol glycoside 700 ppm + yerba mate mono/dicaffeoylquinic acids 600 ppm
[12] = steviol glycoside 700 ppm + yerba mate mono/dicaffeoylquinic acids 700 ppm
[13] = steviol glycoside 700 ppm + yerba mate mono/dicaffeoylquinic acids 708 ppm
[14] = steviol glycoside 700 ppm + yerba mate mono/dicaffeoylquinic acids 800 ppm
[15] = steviol glycoside 700 ppm, sensory modifier 0 ppm

## C=C1C[C@@]23CC[C@H]4[C@@](C)(CCC[C@@]4(C)C(=O)O[C@@H]4O[C@H](CO)[C@@H](O)[C@H](O[C@@H]5O[C@H](CO)[C@@H](O)[C@H](O)[C@H]5O)[C@H]4O[C@@H]4O[C@H](CO)[C@@H](O)[C@H](O)[C@H]4O)[C@@H]2CC[C@]1(O[C@@H]1O[C@H](CO)[C@@H](O)[C@H](O[C@@H]2O[C@H](CO)[C@@H](O)[C@H](O)[C@H]2O)[C@H]1O[C@@H]1O[C@H](CO)[C@@H](O)[C@H](O)[C@H]1O)C3 [RebM, Rebaudioside M]
[1]; listed as Reb M
  sweetness intensity plateau (SEV): about 11
  sweetness intensity (SEV): about 13
[1]; listed as rebaudioside M
  sweetness intensity plateau (SEV): ~11
  sweetness intensity (SEV): ~13
[1]; RebM 100 ppm + yerba mate mono/dicaffeoylquinic acids 100 ppm (1:1)
  SEV: 3.5
[1]; RebM 100 ppm, no sensory modifier
  SEV: 3.25
[1]; RebM 200 ppm + yerba mate mono/dicaffeoylquinic acids 200 ppm (1:1)
  SEV: 6
[1]; RebM 200 ppm, no sensory modifier
  SEV: 4.5
[1]; RebM 300 ppm + yerba mate mono/dicaffeoylquinic acids 300 ppm (1:1)
  SEV: 7.5
[1]; RebM 300 ppm, no sensory modifier
  SEV: 5.75
[1]; RebM 400 ppm + yerba mate mono/dicaffeoylquinic acids 400 ppm (1:1)
  SEV: 8.5
[1]; RebM 400 ppm, no sensory modifier
  SEV: 7.75
[1]; RebM 500 ppm + yerba mate mono/dicaffeoylquinic acids 500 ppm (1:1)
  SEV: 9.25
[1]; RebM 500 ppm, no sensory modifier
  SEV: 9
[1]; RebM 600 ppm + yerba mate mono/dicaffeoylquinic acids 600 ppm (1:1)
  SEV: 10
[1]; RebM 600 ppm, no sensory modifier
  SEV: 9.5
[1]; RebM 700 ppm + cichoric acid (tartaric backbone) 514 ppm
  SEV: 10
[1]; RebM 700 ppm + cichoric acid (tartaric backbone) 772 ppm
  SEV: 9
[1]; [3]
  SEV: 10
[1]; [4]
  SEV: 10.5
[1]; RebM 700 ppm + rosmarinic acid 391 ppm
  SEV: 10.25
[1]; [5]
  SEV: 10.25
[1]; RebM 700 ppm + yerba mate mono/dicaffeoylquinic acids 700 ppm (1:1)
  SEV: 10.5
[1]; RebM 700 ppm, no sensory modifier
  SEV: 10.5
[1]; RebM 800 ppm + yerba mate mono/dicaffeoylquinic acids 800 ppm (1:1)
  SEV: 10.5
[1]; RebM 800 ppm, no sensory modifier
  SEV: 10.75
[1]; RebM 900 ppm + yerba mate mono/dicaffeoylquinic acids 900 ppm (1:1)
  SEV: 11
[1]; RebM 900 ppm, no sensory modifier
  SEV: 11
[1]; RebM 1000 ppm + yerba mate mono/dicaffeoylquinic acids 1000 ppm (1:1)
  SEV: 11.5
[1]; RebM 1000 ppm, no sensory modifier
  SEV: 11
[1]; RebM 1100 ppm + yerba mate mono/dicaffeoylquinic acids 1100 ppm (1:1)
  SEV: 12
[1]; RebM 1100 ppm, no sensory modifier
  SEV: 11
[1]; RebM 1200 ppm + yerba mate mono/dicaffeoylquinic acids 1200 ppm (1:1)
  SEV: 12.25
[1]; RebM 1200 ppm, no sensory modifier
  SEV: 11
[1]; RebM 1300 ppm + yerba mate mono/dicaffeoylquinic acids 1300 ppm (1:1)
  SEV: 12.5
[1]; RebM 1400 ppm + yerba mate mono/dicaffeoylquinic acids 1400 ppm (1:1)
  SEV: 13
[1]; RebM 1500 ppm + yerba mate mono/dicaffeoylquinic acids 1500 ppm (1:1)
  SEV: 13
[1]; RebM 1600 ppm + yerba mate mono/dicaffeoylquinic acids 1600 ppm (1:1)
  SEV: 13
[1]; [6]
  SEV: 10 and 10.5
[1]; [7]
  SEV: 10.25
[1]; [8]
  SEV: 10.25
[1]; [9]
  SEV: 10
[1]; [10]
  SEV: 10.00
[1]; [11]
  SEV: 10.5
[1]; [12]
  SEV: 10.5 and 10
[1]; [13]
  SEV: 10
[1]; [14]
  SEV: 10.5
[1]; [15]
  SEV: 10.5
[2]; [3]
  Off taste: 0
[2]; [4]
  Off taste: 0
[2]; [5]
  Off taste: 0
[2]; RebM 700 ppm, about 200 ppm and above of sensory modifier
  off taste: not perceptible; also recorded: between slight and none
[2]; quinic, tartaric or 3-(3,4-dihydroxyphenyl)lactic acid backbone modifier above 200 ppm
  off taste: none
[2]; [6]
  Off taste: 0
[2]; [7]
  Off taste: 0
[2]; [8]
  Off taste: 2
[2]; [9]
  Off taste: 0
[2]; [10]
  Off taste: 0
[2]; [11]
  Off taste: 2
[2]; [12]
  Off taste: 0
[2]; [13]
  Off taste: 0
[2]; [14]
  Off taste: 2
[2]; [15]
  Off taste: 5
